The values that follow come from patent US9238056B2, “Cyclic peptide and conjugate thereof for binding to keratinocytes” (LEO PHARMA A/S, priority 2011, dated 2016).

The subject of one series is HaCat cells. Conditions: cited from earlier work.
Series [1] relates to Adult human epidermal keratinocytes (HEKa). Briefly: Cathelicidin (CAMP) expression by qPCR in keratinocytes incubated with calcipotriol-loaded liposomes. Type of series: cell-based. Conditions: 10^−7 M calcipotriol, 1 h at 37° C. then 24 h, versus placebo RKK12-conjugated liposomes, FIG. 6. The method, then: Adult human epidermal keratinocytes (HEKa) were obtained from Cascade Biologics (Portland, Oreg., USA) and cultured in EpiLife Medium (Cascade Biologics) containing human keratinocyte growth supplement and gentamicin/Amphotericin B (Cascade Biologics) at 37° C. in a humidified atmosphere with 5% CO2. For the cell interaction assay, 2×10^5 exponentially growing keratinocytes were seeded one day prior to treatment. On the following day (at 80% confluency), the medium was renewed, and the cell culture media was supplied with 15 μl of liposome suspension for a final concentration of 10^−7 M calcipotriol in the well, 15 μl placebo liposomal suspension, or calcipotriol in 0.1% DMSO solution for a final concentration of 10^−7 M and incubated 1 h at 37° C. The liposomes were conjugated with either the RKK12-peptide or the AKK12-peptide. After 1 h, the cells were washed three times with PBS supplemented with 1% BSA, and 1.5 ml media was added followed by incubation for 24 h at 37° C. Subsequently, the medium was removed, and mRNA was extracted using the RNeasy kit from Quiagen (Hilden, Germany). […] The relative change in the expression of CAMP was quantified using the comparative CT method (2^−ΔΔCt)(K. J. Livak and T. D. Schmittgen, Methods 25, 2001, pp. 402-408).
On the technique in general: In qPCR the cycle at which signal appears reflects the starting amount.

The target of another series is T1, integrin α2β1 receptor (Homo sapiens, UniProt P17301).
T1 sequence (P17301 153-368 limits assumed): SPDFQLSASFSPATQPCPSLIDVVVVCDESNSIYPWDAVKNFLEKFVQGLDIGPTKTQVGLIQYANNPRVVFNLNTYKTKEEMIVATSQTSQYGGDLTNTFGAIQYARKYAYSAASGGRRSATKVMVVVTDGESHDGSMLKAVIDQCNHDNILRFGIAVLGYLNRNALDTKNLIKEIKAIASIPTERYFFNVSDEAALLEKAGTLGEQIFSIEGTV
Conditions: cyclic peptide: in the presence of 2 mM MgCl2; cited from earlier work.

The test system of series [2] is A431 cells. Briefly: Cellular internalization of DiD-labeled peptide-conjugated liposomes at 37° C. (flow cytometry). Type of series: cell-based, human. Conditions: 1 hour at 37° C., FIG. 4. The protocol:
(§1) Human epidermal carcinoma cells A431 were subcultured in Dulbecco's modified Eagle's medium (DMEM) containing 3.7 g/l sodium bicarbonate and 4.5 g/l glucose, supplemented with antimicrobial agents, 2 mM L-glutamine and 7.5% (v/v) fetal bovine serum, at 37° C. in a humidified atmosphere containing 5% CO2. Nearly confluent mono-layers of A431 cells were washed with PBS and cells were detached using 1 mM tris-EDTA in PBS. The cells were subsequently suspended in cold PBS supplemented with 1.26 mM CaCl2 and 0.81 mM MgSO4 at 4° C. The cells were counted after centrifugation and 10^5 cells in 100 μl media were incubated with 100 μl liposomes diluted in PBS supplemented with 1.26 mM CaCl and 0.81 mM MgSO4, different concentrations of DiD-labeled liposomes (10-200 nmol total lipid), RKK12-conjugated liposomes (RKK12-liposomes) or AKK12-coupled liposomes (AKK12-liposomes) for 1 h at 4° C.
(§2) In the cellular internalization of liposomes experiment, similar different concentrations of DiD-labeled liposomes (10-200 nmol total lipid) RKK12-liposomes were incubated for 1 hour at 37° C. […] At the end of the incubation period, cells were washed three times in the 5% BSA supplemented PBS-buffer at 4° C., and resuspended in 200 μl PBS supplied with 5% BSA after which they were analyzed on a FACScalibur flow cytometer (Becton-Dickinson). […]
(In general: In flow cytometry, cells or beads pass a laser one at a time.)

Series [3] concerns A431 cells. Briefly: Binding of DiD-labeled peptide-conjugated liposomes to A431 cells at 4° C. (flow cytometry). Type of series: cell-based, human. The protocol:
as §1, §2

Series [4] has as its target T2, integrin α2β1 receptor on the surface of A431 human epidermal carcinoma cells (human, UniProt P17301 30-1181; P05556 21-798).
T2 construct: whole, on cells; Endogenous receptor on A431 cells; also called human integrin α2β1 receptor
The series is described as follows: flow cytometry, DiD-labeled peptide-conjugated liposomes on A431 cells at 4° C.

Bridge positions count the residues as written; N and C are the ends. Ends that are not written are not given here. * marks the point of attachment. Acetylthioacetyl = CC(=O)SCC(=O)*

T2 sequence (P17301 30-1181, chain 1 of 2): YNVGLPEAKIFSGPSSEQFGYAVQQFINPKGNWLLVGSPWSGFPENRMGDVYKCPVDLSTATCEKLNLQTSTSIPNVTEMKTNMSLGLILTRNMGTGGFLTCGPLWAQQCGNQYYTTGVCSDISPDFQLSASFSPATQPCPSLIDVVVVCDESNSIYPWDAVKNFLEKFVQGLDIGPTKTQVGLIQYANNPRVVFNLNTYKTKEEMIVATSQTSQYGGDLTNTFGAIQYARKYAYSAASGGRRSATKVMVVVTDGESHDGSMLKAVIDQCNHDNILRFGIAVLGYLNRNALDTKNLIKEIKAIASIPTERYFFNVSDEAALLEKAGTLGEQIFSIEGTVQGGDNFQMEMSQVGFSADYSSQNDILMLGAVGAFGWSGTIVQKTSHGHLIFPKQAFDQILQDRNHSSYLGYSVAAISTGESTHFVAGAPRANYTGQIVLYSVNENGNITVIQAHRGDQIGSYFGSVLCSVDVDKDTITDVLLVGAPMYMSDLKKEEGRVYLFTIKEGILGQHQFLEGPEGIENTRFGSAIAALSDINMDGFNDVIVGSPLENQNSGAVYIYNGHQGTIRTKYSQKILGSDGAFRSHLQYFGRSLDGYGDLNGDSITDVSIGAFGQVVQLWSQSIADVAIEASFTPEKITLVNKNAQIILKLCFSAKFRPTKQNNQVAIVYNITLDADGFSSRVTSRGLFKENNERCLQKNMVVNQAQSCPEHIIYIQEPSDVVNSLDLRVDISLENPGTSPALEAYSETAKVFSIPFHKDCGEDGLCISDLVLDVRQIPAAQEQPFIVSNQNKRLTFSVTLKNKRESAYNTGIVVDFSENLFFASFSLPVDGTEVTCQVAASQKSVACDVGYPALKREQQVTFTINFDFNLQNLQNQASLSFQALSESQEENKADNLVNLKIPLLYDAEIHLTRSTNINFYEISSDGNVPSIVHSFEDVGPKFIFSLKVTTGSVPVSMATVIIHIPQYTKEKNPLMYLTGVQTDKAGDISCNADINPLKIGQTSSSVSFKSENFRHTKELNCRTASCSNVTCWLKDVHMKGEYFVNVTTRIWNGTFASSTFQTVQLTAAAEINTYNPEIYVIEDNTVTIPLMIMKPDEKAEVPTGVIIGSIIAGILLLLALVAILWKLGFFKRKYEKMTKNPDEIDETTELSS
T2 sequence (P05556 21-798, chain 2 of 2): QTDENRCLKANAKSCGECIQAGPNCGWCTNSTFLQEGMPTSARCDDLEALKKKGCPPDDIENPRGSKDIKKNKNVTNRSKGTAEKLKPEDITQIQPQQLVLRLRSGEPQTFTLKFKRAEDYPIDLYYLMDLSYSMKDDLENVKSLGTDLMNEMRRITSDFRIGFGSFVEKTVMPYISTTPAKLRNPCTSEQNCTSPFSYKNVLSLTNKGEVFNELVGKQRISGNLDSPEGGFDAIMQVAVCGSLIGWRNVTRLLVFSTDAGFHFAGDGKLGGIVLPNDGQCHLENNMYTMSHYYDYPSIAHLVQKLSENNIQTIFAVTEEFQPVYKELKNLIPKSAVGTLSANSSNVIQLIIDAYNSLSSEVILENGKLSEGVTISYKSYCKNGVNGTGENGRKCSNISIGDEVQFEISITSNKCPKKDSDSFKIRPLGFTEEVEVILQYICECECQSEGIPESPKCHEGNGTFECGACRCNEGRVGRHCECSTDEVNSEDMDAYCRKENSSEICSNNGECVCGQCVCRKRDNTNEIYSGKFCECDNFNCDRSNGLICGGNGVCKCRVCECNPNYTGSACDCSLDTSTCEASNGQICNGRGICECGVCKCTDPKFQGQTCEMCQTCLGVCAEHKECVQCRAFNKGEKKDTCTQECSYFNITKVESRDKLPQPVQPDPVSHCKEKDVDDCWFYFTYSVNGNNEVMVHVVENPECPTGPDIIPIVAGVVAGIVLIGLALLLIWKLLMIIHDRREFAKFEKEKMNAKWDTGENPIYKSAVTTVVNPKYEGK

As for `C=C1/C(=C\C=C2/CCC[C@]3(C)[C@@H]([C@H](C)/C=C/[C@@H](O)C4CC4)CC[C@@H]23)C[C@@H](O)C[C@@H]1O` [calcipotriol], in the series with HaCat cells, the levels of cathelicidin result is on record as “Increased levels”. For the molecule “AKK12-conjugated liposomes: calcipotriol-loaded liposomes conjugated with the control peptide AKK12 (cyclo(KHDNRQSK(Acetylthioacetyl)STAK); not fully specified)”, the “expression of cathelicidin (CAMP) normalized to GAPDH” value in series [1] is “no significant difference between the formulations”. For “C^241TRKKHDNAQ^249C: nine amino acid long cyclic peptide with RKK motif derived from jararhagin (Ivaska et al.) (CTRKKHDNAQC; disulfide 1-11)”, the “inhibition of collagen I interaction with the integrin α2β1 receptor” value with integrin α2β1 receptor was “inhibit the interaction”. With “RKK12-liposomes: DiD-labeled liposomes (DSPC, PEG2000-DSPE, Mal-PEG2000-DSPE, cholesterol) conjugated with RKK12 peptide (cyclo(KHDNAQSK(Acetylthioacetyl)STRK); also: conjugated to DiD-labeled liposomes)”, the “internalization (cellular uptake) of liposomes” value in the series with A431 cells [2] is on record as “highest”. The “association of liposomes at low Mg2+ concentrations, versus AKK12-conjugated liposomes” value in the series with A431 cells [3] (4° C., PBS not supplied with CaCl2 or MgSO4, FIG. 5) is reported as “only slightly higher”. For the same molecule, in the series on A431 cells [3] (1 h at 4° C., PBS with 1.26 mM CaCl2 and 0.81 mM MgSO4, 10-200 nmol total lipid, FIG. 3), the “fluorescence of cells (association of liposomes)” value is listed as “significantly more fluorescent”.

B1: RKK12 head-to-tail cyclized targeting peptide H-KHDNAQS-(SATA)KSTRK-OH, conjugated to DiD-labeled liposomes (peptide)
peptide: cyclo(KHDNAQSKSTRK)
modifications: not fully specified (residue 8)
notes: Synthetic cyclic peptide; tested only as a conjugate on the surface of DiD-labeled PEGylated liposomes, so many copies per particle; also called RKK12-peptide; RKK-12 peptide
As to B1, in series [4], the binding result is recorded as “binds”.

B2: AKK12 head-to-tail cyclized control peptide H-KHDNRQS-(SATA)KSTAK-OH, conjugated to DiD-labeled liposomes (peptide)
peptide: cyclo(KHDNRQSKSTAK)
modifications: not fully specified (residue 8)
notes: Control peptide with similar charge as RKK12 but without the RKK motif (Arg and Ala exchanged); tested only as a liposome conjugate; also called AKK12-peptide; AKK12-liposomes
In the case of B2, in series [4], the binding result is “binds”.
